Experiments:
Format in all cases: in vivo
Sunflower = assay: Test C preemergence; settings: scale 0 to 100, 0 no effect, 100 complete control
rice (Oryza saliva) [1] = assay: Test C flooded paddy test; settings: for Rice plant response rating: Flooded Paddy, scale 0 to 100, 0 no effect, 100 complete control; for Plant response rating, Rice: flooded paddy test, scale 0 to 100 (0 no effect, 100 complete control)
Summary of the method: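 Flooded paddy, 2-leaf stage at treatment. Readout: visual % control vs untreated, 0–100, at 12–14 d in greenhouse.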

[2] = system: lambsquarters (Chenopodium album); assay: Test B postemergence; settings: 13 to 15 days
Summary of the method: (§1)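 Post-treatment, species sat 13–15 days under greenhouse conditions before visual scoring against controls, 0 (no effect) through 100 (complete control). Application preemergence to sown seeds or postemergence at 1- to 4-leaf stage, using a non-phytotoxic solvent/surfactant formulation.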

[3] = system: morning glory (Ipomoea hederacea); assay: Test B postemergence; settings: 13 to 15 days
Summary of the method: as §1

[4] = system: pigweed (Amaranthus retroflexus); assay: Test B postemergence; settings: 13 to 15 days
Summary of the method: as §1

corn (Zea mays) [5] = assay: Test B postemergence; settings: 13 to 15 days
Summary of the method: as §1

[6] = system: giant foxtail (Setaria faberii); assay: Test B postemergence; settings: 13 to 15 days
Summary of the method: as §1

[7] = system: barnyardgrass (Echinochloa crus-galli); assay: Test B postemergence; settings: 13 to 15 days
Summary of the method: as §1

[8] = system: crabgrass (Digitaria sanguinalis); assay: Test B postemergence; settings: 13 to 15 days
Summary of the method: as §1

wild oat (Avena fatua) = assay: Test B postemergence; settings: 13 to 15 days
Summary of the method: as §1

[9] = system: wheat (Triticum aestivum); assay: Test B postemergence; settings: 13 to 15 days
Summary of the method: as §1

[10] = system: velvetleaf (Abutilon theophrasti); assay: Test B postemergence; settings: 13 to 15 days
Summary of the method: as §1

[11] = system: blackgrass (Alopecurus myosuroides); assay: Test B postemergence; settings: 13 to 15 days
Summary of the method: as §1

[12] = system: Surinam grass (Brachiaria decumbens); assay: Test B postemergence; settings: 13 to 15 days
Summary of the method: as §1

[13] = system: lambsquarters (Chenopodium album); assay: Test B preemergence
Summary of the method: as §1

[14] = system: morning glory (Ipomoea hederacea); assay: Test B preemergence
Summary of the method: as §1

[15] = system: pigweed (Amaranthus retroflexus); assay: Test B preemergence
Summary of the method: as §1

corn (Zea mays) [16] = assay: Test B preemergence
Summary of the method: as §1

[17] = system: giant foxtail (Setaria faberii); assay: Test B preemergence
Summary of the method: as §1

rice (Oryza saliva) [18] = assay: Test B preemergence
Summary of the method: as §1

[19] = system: barnyardgrass (Echinochloa crus-galli); assay: Test B preemergence
Summary of the method: as §1

[20] = system: crabgrass (Digitaria sanguinalis); assay: Test B preemergence
Summary of the method: as §1

[21] = system: velvetleaf (Abutilon theophrasti); assay: Test B preemergence
Summary of the method: as §1

[22] = system: cocklebur (Xanthium strumarium); assay: Test B preemergence
Summary of the method: as §1

[23] = system: Surinam grass (Brachiaria decumbens); assay: Test B preemergence
Summary of the method: as §1

[24] = system: cocklebur (Xanthium strumarium); assay: Test B postemergence; settings: 13 to 15 days
Summary of the method: as §1

[25] = Rate 500 g/ha, scale 0 to 100, 0 is no effect, 100 is complete control
[26] = Rate 125 g/ha, scale 0 (no effect) to 100 (complete control)
[27] = Preemergence, Rate 500 g/ha, scale 0 to 100, 0 no effect, 100 complete control
[28] = preemergence, Rate 125 g/ha, scale of 0 to 100 where 0 is no effect and 100 is complete control, 13 to 15 days
[29] = preemergence, Rate 125 g/ha, scale 0 to 100, 0 no effect, 100 complete control

CC(C)(C)c1ccn(C2CCN(c3cccc([S+]([O-])C(F)(F)F)c3)C2=O)n1 (stereo not drawn) [Compound 101]
90: Rice plant response rating (rice (Oryza saliva) [1]; Rate 500 g/ha) | Plant response rating, Crabgrass [20, 28]
30: Plant response rating, Sunflower (Sunflower; Rate 250 g/ha) | Plant response rating, Barnyardgrass [19, 28]
0: Plant response rating, Rice (rice (Oryza saliva) [1]; Rate 62 g/ha) | Plant response rating, Lambsquarters [2, 25] | Plant response rating, Morningglory [3, 25] | Plant response rating, Pigweed [4, 25] | Plant response rating, Corn (corn (Zea mays) [5]; [26]) | Plant response rating, Corn (corn (Zea mays) [5]; [25]) | Plant response rating, Foxtail, Giant [6, 26] | Plant response rating, Foxtail, Giant [6, 25] | Plant response rating, Barnyardgrass [7, 26] | Plant response rating, Barnyardgrass [7, 25] | Plant response rating, Crabgrass [8, 26] | Plant response rating, Crabgrass [8, 25] | Plant response rating, Wild Oat (wild oat (Avena fatua); [25]) | Plant response rating, Wheat [9, 25] | Plant response rating, Velvetleaf [10, 25] | Plant response rating, Blackgrass [11, 26] | Plant response rating, Blackgrass [11, 25] | Plant response rating, Surinam grass [12, 26] | Plant response rating, Surinam grass [12, 25] | Plant response rating, Morningglory [14, 27] | Plant response rating, Morningglory [14, 28] | Plant response rating, Corn (corn (Zea mays) [16]; [28]) | Plant response rating, Foxtail, Giant [17, 28] | Plant response rating, Rice (rice (Oryza saliva) [18]; [28]) | Plant response rating, Velvetleaf [21, 27] | Plant response rating, Velvetleaf [21, 28] | Plant response rating, Cocklebur [22, 27] | Plant response rating, Cocklebur [22, 28] | Plant response rating, Surinam grass [23, 28]
80: Rice plant response rating (rice (Oryza saliva) [1]; Rate 250 g/ha) | Plant response rating, Rice (rice (Oryza saliva) [1]; Rate 125 g/ha) | Plant response rating, Surinam grass [23, 27]
70: Plant response rating, Corn (corn (Zea mays) [16]; [27])
100: Plant response rating, Lambsquarters [13, 27] | Plant response rating, Lambsquarters [13, 28] | Plant response rating, Pigweed [15, 27] | Plant response rating, Foxtail, Giant [17, 27] | Plant response rating, Barnyardgrass [19, 27] | Plant response rating, Crabgrass [20, 27]
40: Plant response rating, Pigweed [15, 28]

CCC(CC)c1ccn(C2SCN(c3cccc(C(F)(F)F)c3)C2=O)n1 (stereo not drawn) [Compound 21]
20: Plant response rating, Rice (rice (Oryza saliva) [1]; Rate 125 g/ha) | Plant response rating, Foxtail, Giant [6, 26] | Plant response rating, Velvetleaf [10, 26] | Plant response rating, Surinam grass [23, 27] | Plant response rating, Surinam grass [23, 29]
80: Plant response rating, Morningglory [3, 25] | Plant response rating, Cocklebur [24, 25]
60: Plant response rating, Foxtail, Giant [6, 25] | Plant response rating, Velvetleaf [10, 25] | Plant response rating, Barnyardgrass [19, 29]
90: Plant response rating, Pigweed [4, 25] | Plant response rating, Barnyardgrass [7, 26] | Plant response rating, Morningglory [14, 29] | Plant response rating, Pigweed [15, 27]
30: Plant response rating, Crabgrass [8, 26]
70: Plant response rating, Sunflower (Sunflower; Rate 125 g/ha) | Rice plant response rating (rice (Oryza saliva) [1]; Rate 250 g/ha) | Rice plant response rating (rice (Oryza saliva) [1]; Rate 500 g/ha) | Plant response rating, Morningglory [3, 26] | Plant response rating, Pigweed [4, 26] | Plant response rating, Crabgrass [8, 25] | Plant response rating, Cocklebur [24, 26] | Plant response rating, Foxtail, Giant [17, 29]
0: Plant response rating, Rice (rice (Oryza saliva) [1]; Rate 62 g/ha) | Plant response rating, Corn (corn (Zea mays) [5]; [26]) | Plant response rating, Corn (corn (Zea mays) [5]; [25]) | Plant response rating, Wild Oat (wild oat (Avena fatua); [26]) | Plant response rating, Wild Oat (wild oat (Avena fatua); [25]) | Plant response rating, Wheat [9, 26] | Plant response rating, Wheat [9, 25] | Plant response rating, Blackgrass [11, 26] | Plant response rating, Blackgrass [11, 25] | Plant response rating, Surinam grass [12, 26] | Plant response rating, Surinam grass [12, 25] | Plant response rating, Pigweed [15, 29] | Plant response rating, Corn (corn (Zea mays) [16]; [27]) | Plant response rating, Corn (corn (Zea mays) [16]; [29]) | Plant response rating, Rice (rice (Oryza saliva) [18]; [27]) | Plant response rating, Rice (rice (Oryza saliva) [18]; [29]) | Plant response rating, Velvetleaf [21, 27] | Plant response rating, Velvetleaf [21, 29] | Plant response rating, Cocklebur [22, 27]
100: Plant response rating, Lambsquarters [2, 26] | Plant response rating, Lambsquarters [2, 25] | Plant response rating, Barnyardgrass [7, 25] | Plant response rating, Morningglory [14, 27] | Plant response rating, Foxtail, Giant [17, 27] | Plant response rating, Barnyardgrass [19, 27] | Plant response rating, Crabgrass [20, 27] | Plant response rating, Crabgrass [20, 29]

CCC(CC)c1ccn(C2OCN(c3cccc(OC(F)(F)F)c3)C2=O)n1 (stereo not drawn) [Compound 68]
50: Plant response rating, Cocklebur [24, 26]
100: Rice plant response rating (rice (Oryza saliva) [1]; Rate 500 g/ha) | Plant response rating, Lambsquarters [2, 26] | Plant response rating, Lambsquarters [2, 25] | Plant response rating, Barnyardgrass [7, 25] | Plant response rating, Crabgrass [8, 25] | Plant response rating, Lambsquarters [13, 27] | Plant response rating, Lambsquarters [13, 28] | Plant response rating, Pigweed [15, 27] | Plant response rating, Pigweed [15, 28] | Plant response rating, Barnyardgrass [19, 27] | Plant response rating, Barnyardgrass [19, 28]
30: Rice plant response rating (rice (Oryza saliva) [1]; Rate 250 g/ha) | Plant response rating, Rice (rice (Oryza saliva) [1]; Rate 125 g/ha) | Plant response rating, Surinam grass [12, 25] | Plant response rating, Rice (rice (Oryza saliva) [18]; [27])
80: Plant response rating, Cocklebur [24, 25]
0: Plant response rating, Morningglory [3, 26] | Plant response rating, Morningglory [3, 25] | Plant response rating, Pigweed [4, 26] | Plant response rating, Pigweed [4, 25] | Plant response rating, Corn (corn (Zea mays) [5]; [26]) | Plant response rating, Corn (corn (Zea mays) [5]; [25]) | Plant response rating, Wild Oat (wild oat (Avena fatua); [26]) | Plant response rating, Wild Oat (wild oat (Avena fatua); [25]) | Plant response rating, Wheat [9, 26] | Plant response rating, Wheat [9, 25] | Plant response rating, Velvetleaf [10, 26] | Plant response rating, Blackgrass [11, 26] | Plant response rating, Blackgrass [11, 25] | Plant response rating, Morningglory [14, 27] | Plant response rating, Morningglory [14, 28] | Plant response rating, Corn (corn (Zea mays) [16]; [28]) | Plant response rating, Rice (rice (Oryza saliva) [18]; [28]) | Plant response rating, Velvetleaf [21, 27] | Plant response rating, Velvetleaf [21, 28] | Plant response rating, Cocklebur [22, 27] | Plant response rating, Cocklebur [22, 28] | Plant response rating, Surinam grass [23, 27] | Plant response rating, Surinam grass [23, 28]
90: Plant response rating, Barnyardgrass [7, 26] | Plant response rating, Crabgrass [8, 26]
40: Plant response rating, Foxtail, Giant [6, 25]
20: Plant response rating, Rice (rice (Oryza saliva) [1]; Rate 62 g/ha) | Plant response rating, Foxtail, Giant [6, 26] | Plant response rating, Velvetleaf [10, 25] | Plant response rating, Surinam grass [12, 26] | Plant response rating, Corn (corn (Zea mays) [16]; [27]) | Plant response rating, Foxtail, Giant [17, 27] | Plant response rating, Crabgrass [20, 27]

— patent publication US7138361B2, “Herbicidal heterocycles” (E. I. du Pont de Nemours and Company, priority 2000, dated 2006)
